Experimental data published in PubChem BioAssay (NCI).
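Tested at 5 concentrations; 48 h exposure; 96-well plates; endpoints linearly interpolated, else capped at highest concentration. The concentration for 50% growth inhibition is given as GI50. TGI: total growth inhibition.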

Experiments:
Assay in all cases: NCI tumour cell line growth inhibition, 48 h
CAKI-1 renal = test system: CAKI-1 renal
HCT-116 colon = test system: HCT-116 colon
CCRF-CEM leukemia = test system: CCRF-CEM leukemia
NCI-H522 lung = test system: NCI-H522 lung
UACC-62 melanoma = test system: UACC-62 melanoma
UO-31 renal = test system: UO-31 renal
A498 renal = test system: A498 renal
NCI/ADR-RES ovarian = test system: NCI/ADR-RES ovarian
NCI-H226 lung = test system: NCI-H226 lung
MOLT-4 leukemia = test system: MOLT-4 leukemia
KM12 colon = test system: KM12 colon
TK-10 renal = test system: TK-10 renal
UACC-257 melanoma = test system: UACC-257 melanoma
SR leukemia = test system: SR leukemia
SN12C renal = test system: SN12C renal
PC-3 prostate = test system: PC-3 prostate
HS 578T breast = test system: HS 578T breast
OVCAR-3 ovarian = test system: OVCAR-3 ovarian
A549 NSCLC = test system: A549 NSCLC
786-0 renal = test system: 786-0 renal
U251 CNS = test system: U251 CNS
MALME-3M melanoma = test system: MALME-3M melanoma
HCT-15 colon = test system: HCT-15 colon
HOP-92 NSCLC = test system: HOP-92 NSCLC
SF-539 CNS = test system: SF-539 CNS
T-47D breast = test system: T-47D breast
HCC-2998 colon = test system: HCC-2998 colon
SF-268 CNS = test system: SF-268 CNS
SK-MEL-28 melanoma = test system: SK-MEL-28 melanoma
K-562 leukemia = test system: K-562 leukemia
COLO 205 colon = test system: COLO 205 colon
ACHN renal = test system: ACHN renal
EKVX NSCLC = test system: EKVX NSCLC
SF-295 CNS = test system: SF-295 CNS
SW-620 colon = test system: SW-620 colon
LOX IMVI melanoma = test system: LOX IMVI melanoma
SK-MEL-2 melanoma = test system: SK-MEL-2 melanoma
IGROV1 ovarian = test system: IGROV1 ovarian
OVCAR-4 ovarian = test system: OVCAR-4 ovarian
BT-549 breast = test system: BT-549 breast
OVCAR-8 ovarian = test system: OVCAR-8 ovarian
RPMI-8226 leukemia = test system: RPMI-8226 leukemia
DU-145 prostate = test system: DU-145 prostate
RXF 393 renal = test system: RXF 393 renal
HT29 colon = test system: HT29 colon
NCI-H460 lung = test system: NCI-H460 lung
SNB-75 CNS = test system: SNB-75 CNS
SK-MEL-5 melanoma = test system: SK-MEL-5 melanoma
MCF7 breast = test system: MCF7 breast
HOP-62 NSCLC = test system: HOP-62 NSCLC
SK-OV-3 ovarian = test system: SK-OV-3 ovarian
HL-60(TB) leukemia = test system: HL-60(TB) leukemia
OVCAR-5 ovarian = test system: OVCAR-5 ovarian
SNB-19 CNS = test system: SNB-19 CNS

Q: Which GI50 (CAKI-1 renal) does the source give for `COc1cc(C2=NNC(c3ccc(N(C)C)cc3)C2)cc(OC)c1OC` (stereo not drawn) here?
A: 2.68 µM

Q: And the TGI (CAKI-1 renal)?
A: > 100 µM

Q: And the GI50 (HCT-116 colon)?
A: 2.03 µM

Q: And the TGI (HCT-116 colon)?
A: 19.7 µM

Q: What about the GI50 (CCRF-CEM leukemia) of the same molecule?
A: 1.62 µM

Q: What about the TGI (CCRF-CEM leukemia) of the same molecule?
A: 6.22 µM

Q: What about the GI50 (NCI-H522 lung) of the same molecule?
A: 2 µM

Q: What about the TGI (NCI-H522 lung) of the same molecule?
A: 5.74 µM

Q: What about the GI50 (UACC-62 melanoma) of the same molecule?
A: 4.37 µM

Q: And the TGI (UACC-62 melanoma)?
A: > 100 µM

Q: And the GI50 (UO-31 renal)?
A: 4.75 µM

Q: And the TGI (UO-31 renal)?
A: 50.6 µM

Q: And the GI50 (A498 renal)?
A: 2.87 µM

Q: What about the TGI (A498 renal) of the same molecule?
A: 8.84 µM

Q: What about the GI50 (NCI/ADR-RES ovarian) of the same molecule?
A: 2.2 µM

Q: What about the TGI (NCI/ADR-RES ovarian) of the same molecule?
A: > 100 µM

Q: And the GI50 (NCI-H226 lung)?
A: 54.7 µM

Q: And the TGI (NCI-H226 lung)?
A: > 100 µM

Q: And the GI50 (MOLT-4 leukemia)?
A: 2.81 µM

Q: What about the TGI (MOLT-4 leukemia) of the same molecule?
A: 11.4 µM

Q: And the GI50 (KM12 colon)?
A: 0.525 µM

Q: And the TGI (KM12 colon)?
A: 12.4 µM

Q: What about the GI50 (TK-10 renal) of the same molecule?
A: 10.1 µM

Q: What about the TGI (TK-10 renal) of the same molecule?
A: > 100 µM

Q: And the GI50 (UACC-257 melanoma)?
A: 8.61 µM

Q: And the TGI (UACC-257 melanoma)?
A: 47.4 µM

Q: What about the GI50 (SR leukemia) of the same molecule?
A: 0.25 µM

Q: What about the TGI (SR leukemia) of the same molecule?
A: 8.06 µM

Q: And the GI50 (SN12C renal)?
A: 4.63 µM

Q: And the TGI (SN12C renal)?
A: > 100 µM

Q: What about the GI50 (PC-3 prostate) of the same molecule?
A: 0.781 µM

Q: What about the TGI (PC-3 prostate) of the same molecule?
A: > 100 µM

Q: What about the GI50 (HS 578T breast) of the same molecule?
A: 2.24 µM

Q: And the TGI (HS 578T breast)?
A: 5.96 µM

Q: And the GI50 (OVCAR-3 ovarian)?
A: 6.07 µM

Q: And the TGI (OVCAR-3 ovarian)?
A: > 100 µM

Q: And the GI50 (A549 NSCLC)?
A: 3.94 µM

Q: And the TGI (A549 NSCLC)?
A: > 100 µM

Q: What about the GI50 (786-0 renal) of the same molecule?
A: 1.93 µM

Q: And the TGI (786-0 renal)?
A: > 100 µM

Q: And the GI50 (U251 CNS)?
A: 0.672 µM

Q: And the TGI (U251 CNS)?
A: > 100 µM

Q: And the GI50 (MALME-3M melanoma)?
A: 7.85 µM

Q: What about the TGI (MALME-3M melanoma) of the same molecule?
A: > 100 µM

Q: What about the GI50 (HCT-15 colon) of the same molecule?
A: 2.48 µM

Q: What about the TGI (HCT-15 colon) of the same molecule?
A: > 100 µM

Q: And the GI50 (HOP-92 NSCLC)?
A: 3.77 µM

Q: And the TGI (HOP-92 NSCLC)?
A: > 100 µM

Q: What about the GI50 (SF-539 CNS) of the same molecule?
A: 0.56 µM

Q: What about the TGI (SF-539 CNS) of the same molecule?
A: 2.89 µM

Q: And the GI50 (T-47D breast)?
A: 19.8 µM

Q: What about the TGI (T-47D breast) of the same molecule?
A: > 100 µM

Q: What about the GI50 (HCC-2998 colon) of the same molecule?
A: 1.4 µM

Q: What about the TGI (HCC-2998 colon) of the same molecule?
A: 4.6 µM

Q: And the GI50 (SF-268 CNS)?
A: 2.09 µM

Q: What about the TGI (SF-268 CNS) of the same molecule?
A: > 100 µM

Q: And the GI50 (SK-MEL-28 melanoma)?
A: 15.6 µM

Q: What about the TGI (SK-MEL-28 melanoma) of the same molecule?
A: > 100 µM

Q: And the GI50 (K-562 leukemia)?
A: 0.406 µM

Q: What about the TGI (K-562 leukemia) of the same molecule?
A: 74.5 µM

Q: What about the GI50 (COLO 205 colon) of the same molecule?
A: 2.39 µM

Q: What about the TGI (COLO 205 colon) of the same molecule?
A: 12.5 µM

Q: And the GI50 (ACHN renal)?
A: 11.3 µM

Q: And the TGI (ACHN renal)?
A: > 100 µM

Q: What about the GI50 (EKVX NSCLC) of the same molecule?
A: 2.02 µM

Q: And the TGI (EKVX NSCLC)?
A: 6.02 µM

Q: And the GI50 (SF-295 CNS)?
A: 0.249 µM

Q: And the TGI (SF-295 CNS)?
A: 0.799 µM

Q: What about the GI50 (SW-620 colon) of the same molecule?
A: 0.45 µM

Q: And the TGI (SW-620 colon)?
A: > 100 µM

Q: What about the GI50 (LOX IMVI melanoma) of the same molecule?
A: 7.18 µM

Q: And the TGI (LOX IMVI melanoma)?
A: > 100 µM

Q: And the GI50 (SK-MEL-2 melanoma)?
A: 3.18 µM

Q: What about the TGI (SK-MEL-2 melanoma) of the same molecule?
A: 26.2 µM

Q: What about the GI50 (IGROV1 ovarian) of the same molecule?
A: 0.546 µM

Q: What about the TGI (IGROV1 ovarian) of the same molecule?
A: 3.06 µM

Q: And the GI50 (OVCAR-4 ovarian)?
A: 16.9 µM

Q: What about the TGI (OVCAR-4 ovarian) of the same molecule?
A: > 100 µM

Q: What about the GI50 (BT-549 breast) of the same molecule?
A: 0.811 µM

Q: And the TGI (BT-549 breast)?
A: 10.3 µM

Q: What about the GI50 (OVCAR-8 ovarian) of the same molecule?
A: 4.13 µM

Q: What about the TGI (OVCAR-8 ovarian) of the same molecule?
A: > 100 µM

Q: And the GI50 (RPMI-8226 leukemia)?
A: 1.71 µM

Q: What about the TGI (RPMI-8226 leukemia) of the same molecule?
A: 11.7 µM

Q: And the GI50 (DU-145 prostate)?
A: 1.88 µM

Q: And the TGI (DU-145 prostate)?
A: 5.41 µM

Q: And the GI50 (RXF 393 renal)?
A: 1.2 µM

Q: And the TGI (RXF 393 renal)?
A: 4.83 µM

Q: What about the GI50 (HT29 colon) of the same molecule?
A: 0.667 µM

Q: What about the TGI (HT29 colon) of the same molecule?
A: > 100 µM

Q: What about the GI50 (NCI-H460 lung) of the same molecule?
A: 1.14 µM

Q: What about the TGI (NCI-H460 lung) of the same molecule?
A: 6.83 µM

Q: What about the GI50 (SNB-75 CNS) of the same molecule?
A: 1.02 µM

Q: What about the TGI (SNB-75 CNS) of the same molecule?
A: > 100 µM

Q: And the GI50 (SK-MEL-5 melanoma)?
A: 2.09 µM

Q: And the TGI (SK-MEL-5 melanoma)?
A: 7.15 µM

Q: What about the GI50 (MCF7 breast) of the same molecule?
A: 0.433 µM

Q: And the TGI (MCF7 breast)?
A: > 100 µM

Q: What about the GI50 (HOP-62 NSCLC) of the same molecule?
A: 1.13 µM

Q: And the TGI (HOP-62 NSCLC)?
A: > 100 µM

Q: What about the GI50 (SK-OV-3 ovarian) of the same molecule?
A: 4.22 µM

Q: And the TGI (SK-OV-3 ovarian)?
A: > 100 µM

Q: And the GI50 (HL-60(TB) leukemia)?
A: 1.62 µM

Q: And the TGI (HL-60(TB) leukemia)?
A: 4.96 µM

Q: And the GI50 (OVCAR-5 ovarian)?
A: 4.73 µM

Q: What about the TGI (OVCAR-5 ovarian) of the same molecule?
A: > 100 µM

Q: What about the GI50 (SNB-19 CNS) of the same molecule?
A: 1.82 µM

Q: And the TGI (SNB-19 CNS)?
A: > 100 µM
